Measurements from US9757439B2, “Peptide vaccine comprising mutant RAS peptide and chemotherapeutic agent” (priority 2014, dated 2017).

What was measured:
[1] = test system: resectable pancreatic cancer; conditions: postoperative gemcitabine versus no gemcitabine; cited from earlier work
[2] = test system: DC vaccine-induced T-cell proliferation; conditions: concomitant administration of gemcitabine and the DC vaccine; cited from earlier work
[3] = test system: resected pancreatic cancer; conditions: in vivo

SMILES: Nc1ccn([C@@H]2O[C@H](CO)[C@@H](O)C2(F)F)c(=O)n1 [gemcitabine, 4-amino-1-(2-deoxy-2,2-difluoro-β-D-erythro-pentofuranosyl)pyrimidin-2(1H)-on]
- development of recurrent disease after complete resection [1]: significantly delayed
- vaccine-induced immune response [2]: significantly impaired
- principal adverse event related to gemcitabine ([3]; human, 6 four-week cycles): grade 3/4 neutropenia
- serious adverse events considered related to gemcitabine [3]: pulmonary infection and two episodes of fever
